# Measured values as given in patent publication US20250302815A1, “PROTEIN TYROSINE PHOSPHATASE TARGETING LIGANDS” (CALICO LIFE SCIENCES LLC, priority 2021, published 2025).
# Legend:
# [1] = biological target: T1, PTPN2 (HiBIT-PTPN2 in 293T.109 cells) (Homo sapiens, UniProt P17706); test: HiBiT Degradation 293T.109 PTPN2 (Nano-Glo HiBiT Lytic Assay); format: cell-based; conditions: 24.0 hours
# T1 construct: expressed in transfected cells; host or cells: 293T.109 (293T WT from ATCC)
# T1 sequence (P17706 1-415): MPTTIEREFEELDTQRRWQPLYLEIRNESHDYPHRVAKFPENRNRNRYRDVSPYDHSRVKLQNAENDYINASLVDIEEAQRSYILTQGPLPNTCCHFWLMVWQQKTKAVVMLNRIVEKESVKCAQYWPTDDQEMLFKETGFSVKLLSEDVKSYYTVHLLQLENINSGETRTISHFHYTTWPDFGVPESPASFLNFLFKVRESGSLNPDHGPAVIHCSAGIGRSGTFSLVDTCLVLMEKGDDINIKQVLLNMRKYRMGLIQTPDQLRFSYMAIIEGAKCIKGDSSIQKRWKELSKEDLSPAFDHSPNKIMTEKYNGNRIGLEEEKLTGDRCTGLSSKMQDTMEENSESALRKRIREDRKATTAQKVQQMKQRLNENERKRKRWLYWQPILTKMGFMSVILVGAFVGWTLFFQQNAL
# Source text: Dulbecco's modified Eagle medium (DMEM) without phenol red and fetal bovine serum (FBS) were purchased from Gibco (Grand Island, NY, USA). Nano-Glo® HiBIT Lytic Assay System was purchased from Promega (Madison, WI, USA). 293T.109 (HiBIT-PTPN2) cell line was generated by ectopically expressing PTPN2 with N-terminal HiBIT fusion tag in 293T WT cell line purchased from ATCC (Manassas, VA, USA). Cell culture flasks and 384-well microplates were acquired from VWR (Radnor, PA, USA).
# PTPN2 degradation was determined based on quantification of luminescent signal using Nano-Glo® HiBIT Lytic Assay kit. Test compounds were added to the 384-well plate from a top concentration of 10 μM with 11 points, half log titration in duplicates. 293T.109 cells were added into 384-well plates at a cell density of 5000 cells per well. The plates were kept at 37° C. with 5% CO2 for 24 hours. The cells treated in the absence of the test compound were the negative control and the cells without Nano-Glo® HiBIT Lytic reagent were the positive control. After 24-hour incubation, Nano-Glo® HiBiT Lytic Assay reagents were added to the cells. Luminescence was acquired on EnVision™ Multilabel Reader (PerkinElmer, Santa Clara, CA, USA).
# [2] = biological target: T2, PTPN2 (B16F10.4 cells) (Mus musculus, UniProt Q06180); test: HiBiT Degradation B16F10.4 PTPN2; format: cell-based; conditions: 24.0 hours
# T2 construct: HiBiT; host or cells: B16F10.4
# T2 sequence (Q06180 1-406): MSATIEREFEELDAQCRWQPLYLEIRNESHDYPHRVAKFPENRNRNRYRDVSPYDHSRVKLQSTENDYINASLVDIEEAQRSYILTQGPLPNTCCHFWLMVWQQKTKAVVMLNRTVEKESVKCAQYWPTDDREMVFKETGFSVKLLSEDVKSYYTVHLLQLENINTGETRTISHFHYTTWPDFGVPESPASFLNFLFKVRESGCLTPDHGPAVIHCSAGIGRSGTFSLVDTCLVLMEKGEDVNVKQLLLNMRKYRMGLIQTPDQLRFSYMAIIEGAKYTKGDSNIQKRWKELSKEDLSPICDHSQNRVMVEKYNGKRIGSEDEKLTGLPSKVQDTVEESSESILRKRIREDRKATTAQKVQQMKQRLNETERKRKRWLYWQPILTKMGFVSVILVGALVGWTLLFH
SMILES,DC50 [1] [nM],DC50 [2] [nM]
"CC1(C)C[C@@H](Nc2cccc(-c3sc(C(=O)O)c(OCC(=O)O)c3Cl)c2)CCN1S(=O)(=O)Cc1cccc(NC(=O)N2CCC(C(=O)NCc3cccc4c3CN(C3CCC(=O)NC3=O)C4=O)CC2)c1 (stereo partly drawn) [Example 84, 3-(carboxymethoxy)-4-chloro-5-[3-[[(4S)-1-[[3-[[4-[[2-(2,6-dioxo-3-piperidyl)-1-oxo-isoindolin-4-yl]methylcarbamoyl]piperidine-1-carbonyl]amino]phenyl]methylsulfonyl]-2,2-dimethyl-4-piperidyl]amino]phenyl]thiophene-2-carboxylic acid]",200 to 1000,≥ 1000
"CC1(C)C[C@@H](Nc2cccc(-c3sc(C(=O)O)c(OCC(=O)O)c3Cl)c2)CCN1S(=O)(=O)Cc1cccc(NC(=O)CNc2ccc3c(c2)CN(C2CCC(=O)NC2=O)C3=O)c1 (stereo partly drawn) [Example 37, 3-(carboxymethoxy)-4-chloro-5-[3-[[(4S)-1-[[3-[[2-[[2-(2,6-dioxo-3-piperidyl)-1-oxo-isoindolin-5-yl]amino]acetyl]amino]phenyl]methylsulfonyl]-2,2-dimethyl-4-piperidyl]amino]phenyl]thiophene-2-carboxylic acid]",200 to 1000,200 to 1000
"Cn1c(=O)n(C2CCC(=O)NC2=O)c2ccc(C3CCN(C(=O)Nc4cc(CS(=O)(=O)N5CCC(Nc6cccc(-c7sc(C(=O)O)c(OCC(=O)O)c7Cl)c6)CC5)ccc4F)CC3)cc21 (stereo not drawn) [Example 104, 3-(carboxymethoxy)-4-chloro-5-[3-[[1-[[3-[[4-[1-(2,6-dioxo-3-piperidyl)-3-methyl-2-oxo-benzimidazol-5-yl]piperidine-1-carbonyl]amino]-4-fluoro-phenyl]methylsulfonyl]-4-piperidyl]amino]phenyl]thiophene-2-carboxylic acid]",50 to 200,< 50
CC1(C)C[C@@H](Nc2cccc(-c3sc(C(=O)O)c(OCC(=O)O)c3Cl)c2)CCN1S(=O)(=O)Cc1cccc(NC(=O)N2CCC(Oc3ccc4c(c3)CN(C3CCC(=O)NC3=O)C4=O)CC2)c1 (stereo partly drawn) [Example 76],200 to 1000,≥ 1000
CC1(C)C[C@@H](Nc2cccc(-c3sc(C(=O)O)c(OCC(=O)O)c3Cl)c2)CCN1S(=O)(=O)Cc1cccc(NC(=O)C2C[C@@H]3CN(C(=O)COc4cccc5c4CN(C4CCC(=O)NC4=O)C5=O)C[C@@H]3C2)c1 (stereo partly drawn) [Example 100],200 to 1000,200 to 1000
"CC1(C)C[C@@H](Nc2cccc(-c3sc(C(=O)O)c(OCC(=O)O)c3Cl)c2)CCN1S(=O)(=O)Cc1cccc(NC(=O)CCN2CCC(Nc3cccc4c3CN(C3CCC(=O)NC3=O)C4=O)CC2)c1 (stereo partly drawn) [Example 46, 3-(carboxymethoxy)-4-chloro-5-(3-(((4S)-1-((3-(3-(4-((2-(2,6-dioxopiperidin-3-yl)-1-oxoisoindolin-4-yl)amino)piperidin-1-yl)propanamido)benzyl)sulfonyl)-2,2-dimethylpiperidin-4-yl)amino)phenyl)thiophene-2-carboxylic acid]",< 50,200 to 1000
"O=C(O)COc1c(C(=O)O)sc(-c2cccc(NC3CCN(S(=O)(=O)Cc4cccc(NC(=O)CCCCCNC(=O)CNc5cccc6c5CN(C5CCC(=O)NC5=O)C6=O)c4)CC3)c2)c1Cl (stereo not drawn) [Example 21, 3-(carboxymethoxy)-4-chloro-5-(3-((1-((3-(6-(2-((2-(2,6-dioxopiperidin-3-yl)-1-oxoisoindolin-4-yl)amino)acetamido)hexanamido)benzyl)sulfonyl)piperidin-4-yl)amino)phenyl)thiophene-2-carboxylic acid]",200 to 1000,≥ 1000

# Results, then the molecule that gave them:
DC50 [1] [nM],DC50 [2] [nM],SMILES
50 to 200,< 50,"O=C(O)COc1c(C(=O)O)sc(-c2cccc(N[C@H]3CCN(S(=O)(=O)Cc4cccc(NC(=O)N5CCC(c6ccc7c8c(cccc68)C(=O)N7C6CCC(=O)NC6=O)CC5)c4)C4(CC4)C3)c2)c1Cl (stereo partly drawn) [Example 229, 3-(carboxymethoxy)-4-chloro-5-(3-(((7S)-4-((3-(4-(1-(2,6-dioxopiperidin-3-yl)-2-oxo-1,2-dihydrobenzo[cd]indol-6-yl)piperidine-1-carboxamido)benzyl)sulfonyl)-4-azaspiro[2.5]octan-7-yl)amino)phenyl)thiophene-2-carboxylic acid]"
50 to 200,< 50,"CC1(C)C[C@@H](Nc2cccc(-c3sc(C(=O)O)c(OCC(=O)O)c3Cl)c2)CCN1S(=O)(=O)Cc1cc(NC(=O)N2CCC(c3ccc4c5c(cccc35)C(=O)N4C3CCC(=O)NC3=O)CC2)ccc1F (stereo partly drawn) [Example 161, 3-(carboxymethoxy)-4-chloro-5-[3-[[(4S)-1-[[5-[[4-[1-(2,6-dioxo-3-piperidyl)-2-oxo-benzo[cd]indol-6-yl]piperidine-1-carbonyl]amino]-2-fluoro-phenyl]methylsulfonyl]-2,2-dimethyl-4-piperidyl]amino]phenyl]thiophene-2-carboxylic acid]"
50 to 200,< 50,"Cn1c(=O)n(C2CCC(=O)NC2=O)c2ccc([C@H]3CCN(C(=O)Nc4cccc(CS(=O)(=O)N5CC[C@H](Nc6cccc(-c7sc(C(=O)O)c(OCC(=O)O)c7Cl)c6)CC5(C)C)c4)CC3(F)F)cc21 (stereo partly drawn) [Example 168, 3-(carboxymethoxy)-4-chloro-5-(3-(((4S)-1-((3-((4R)-4-(1-(2,6-dioxopiperidin-3-yl)-3-methyl-2-oxo-2,3-dihydro-1H-benzo[d]imidazol-5-yl)-3,3-difluoropiperidine-1-carboxamido)benzyl)sulfonyl)-2,2-dimethylpiperidin-4-yl)amino)phenyl)thiophene-2-carboxylic acid]"
200 to 1000,50 to 200,"CC1(C)C[C@H](Oc2cccc(-c3sc(C(=O)O)c(OCC(=O)O)c3Cl)c2)CCN1S(=O)(=O)Cc1cccc(NC(=O)N2CCC(c3ccc4c5c(cccc35)C(=O)N4C3CCC(=O)NC3=O)CC2)c1 (stereo partly drawn) [Example 227, 3-(carboxymethoxy)-4-chloro-5-(3-(((4R)-1-((3-(4-(1-(2,6-dioxopiperidin-3-yl)-2-oxo-1,2-dihydrobenzo[cd]indol-6-yl)piperidine-1-carboxamido)benzyl)sulfonyl)-2,2-dimethylpiperidin-4-yl)oxy)phenyl)thiophene-2-carboxylic acid]"
50 to 200,200 to 1000,"Cn1c(=O)n(C2CCC(=O)NC2=O)c2ccc(N3CCC(OCC(=O)Nc4cccc(CS(=O)(=O)N5CC[C@H](Nc6cccc(-c7sc(C(=O)O)c(OCC(=O)O)c7Cl)c6)CC5(C)C)c4)CC3)cc21 (stereo partly drawn) [Example 105, 3-(carboxymethoxy)-4-chloro-5-[3-[[(4S)-1-[[3-[[2-[[1-[1-(2,6-dioxo-3-piperidyl)-3-methyl-2-oxo-benzimidazol-5-yl]-4-piperidyl]oxy]acetyl]amino]phenyl]methylsulfonyl]-2,2-dimethyl-4-piperidyl]amino]phenyl]thiophene-2-carboxylic acid]"
< 50,200 to 1000,CC1(C)C[C@@H](Nc2cccc(-c3sc(C(=O)O)c(OCC(=O)O)c3Cl)c2)CCN1S(=O)(=O)Cc1ccc(F)c(NC(=O)C2CN(C(=O)CNc3cccc4c3CN(C3CCC(=O)NC3=O)C4=O)C2)c1 (stereo partly drawn) [Example 109]
< 50,50 to 200,"Cn1c(=O)n(C2CCC(=O)NC2=O)c2ccc(N3CCC(N4CCN(c5cccc(CS(=O)(=O)N6CCC(Nc7cccc(-c8sc(C(=O)O)c(OCC(=O)O)c8Cl)c7)CC6)c5)C4=O)CC3)cc21 (stereo not drawn) [Example 142, 3-(carboxymethoxy)-4-chloro-5-(3-((1-((3-(3-(1-(1-(2,6-dioxopiperidin-3-yl)-3-methyl-2-oxo-2,3-dihydro-1H-benzo[d]imidazol-5-yl)piperidin-4-yl)-2-oxoimidazolidin-1-yl)benzyl)sulfonyl)piperidin-4-yl)amino)phenyl)thiophene-2-carboxylic acid]"
50 to 200,< 50,"CC1(C)C[C@@H](Nc2cccc(-c3sc(C(=O)O)c(OCC(=O)O)c3Cl)c2F)CCN1S(=O)(=O)Cc1ccc(F)c(NC(=O)N2CCC(c3ccc4c5c(cccc35)C(=O)N4C3CCC(=O)NC3=O)CC2)c1 (single isomer, unassigned) [Example 167]"
